These results are taken from US20250059179A1, “Heterocyclic Compounds and Methods of Use” (AMGEN INC., priority 2021, published 2025).

Each structure is given as a SMILES string.

The target in assay [1] is His-tagged KRAS G12D protein (Homo sapiens, UniProt P01116, G12D). Kind of assay: KRAS G12D TR-FRET Assay.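 Also: europium anti-His antibody paired with streptavidin-d2 as FRET partners, initial 30 min incubation, then peptide 1 h and detection reagents 1 h, all at room temperature.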 In kind it is binding. Conditions: biotinylated KRPep-2d substrate, 10 μM GDP.
The target of assay [2] is GDP-bound KRAS protein (aa 1-169), containing both G12D and C118A amino acid substitutions (Homo sapiens, UniProt P01116, C118A/G12D). The assay can be described thus: KRAS G12D Coupled Nucleotide Exchange Assay.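 Also: IC50 obtained by fitting the AlphaScreen signal with a four-parameter logistic curve.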 The class given is biochemical. Particulars: 2 h compound pre-incubation; SOS-mediated nucleotide exchange, cRAF AlphaScreen readout.
Chain of GDP-bound KRAS protein (aa 1-169), containing both G12D and C118A amino acid substitutions (P01116 1-169 isoform P01116-2 G12D/C118A): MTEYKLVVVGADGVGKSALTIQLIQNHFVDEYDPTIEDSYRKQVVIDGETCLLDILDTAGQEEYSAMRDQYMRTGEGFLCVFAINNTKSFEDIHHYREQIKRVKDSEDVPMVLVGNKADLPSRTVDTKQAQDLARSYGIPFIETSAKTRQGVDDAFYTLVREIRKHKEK

Chain of His-tagged KRAS G12D protein (P01116 1-188 isoform P01116-2 G12D): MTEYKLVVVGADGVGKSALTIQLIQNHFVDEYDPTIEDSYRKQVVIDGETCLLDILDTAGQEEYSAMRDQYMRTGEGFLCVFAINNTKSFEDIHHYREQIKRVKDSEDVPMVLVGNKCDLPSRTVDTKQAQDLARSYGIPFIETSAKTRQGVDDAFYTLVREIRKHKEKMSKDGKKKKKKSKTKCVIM

Molecule `Nc1nc2c(-c3c(Cl)cc4c(N5CCNCC5)nc(OCC56CCC(CC5)N6)nc4c3F)cccc2s1` [Example 75, 4-(2-(((1s,4s)-7-azabicyclo[2.2.1]heptan-1-yl)methoxy)-6-chloro-8-fluoro-4-(piperazin-1-yl)quinazolin-7-yl)benzo[d] thiazol-2-amine] displayed a half-maximal inhibitory concentration (IC50) in assay [1] of 1.85 µM. Further, in assay [2], the “Avg 2 h Coupled Exchange IC50” value amounted to 0.797 µM.
`Nc1nc2c(-c3c(Cl)cc4c(N5CCNCC5)nc(OC[C@@H]5CC(F)(F)CN5)nc4c3F)cccc2s1` [Example 59, 4-(6-chloro-2-(((S)-4,4-difluoro-pyrrolidin-2-yl)methoxy)-8-fluoro-4-(piperazin-1-yl)quinazolin-7-yl)benzo[d] thiazol-2-amine] showed an IC50 in assay [1] of 0.687 µM. In addition, in assay [2], the “Avg 2 h Coupled Exchange IC50” value turned out to be 0.321 µM.
The corresponding values for `Cc1cc2c(N3CCNCC3)nc(OC[C@@H]3CCCN3C)nc2c(F)c1-c1cccc2sc(N)nc12` [Example 155, 4-(8-Fluoro-6-methyl-2-(((S)-1-methylpyrrolidin-2-yl)methoxy)-4-(piperazin-1-yl)quinazolin-7-yl)benzo[d]thiazol-2-amine] are 0.187 µM and 0.04 µM.
`CN1CCC[C@H]1COc1nc(N2CCNCC2)c2cc(Cl)c(-c3ccc(C(F)(F)F)c4sc(N)nc34)c(F)c2n1` [Example 131, 4-(6-chloro-8-fluoro-2-(((S)-1-methylpyrrolidin-2-yl)methoxy)-4-(piperazin-1-yl)quinazolin-7-yl)-7-(trifluoromethyl)benzo [d]thiazol-2-amine] gave a half-inhibitory concentration (IC50) in assay [1] of 1.4 µM. In addition, in assay [2], the “Avg 2 h Coupled Exchange IC50” value worked out at 0.735 µM.
For `CN1CCC[C@H]1COc1nc(N2CCCNCC2)c2cc(Cl)c(-c3cccc4sc(N)nc34)c(F)c2n1` [Example 17, 4-(6-chloro-4-(1,4-diazepan-1-yl)-8-fluoro-2-(((S)-1-methylpyrrolidin-2-yl)methoxy)quinazolin-7-yl)benzo[d] thiazol-2-amine], half-maximal inhibition in assay [1] (IC50) was put at 0.135 µM. Besides, the “Avg 2 h Coupled Exchange IC50” value in assay [2] came to 0.03 µM.
Turning to `C[C@@H](CN(C)C)Oc1nc(N2CCNCC2)c2cc(Cl)c(-c3cccc4sc(N)nc34)c(F)c2n1` [Example 48, 4-(6-chloro-2-(((S)-1-(dimethylamino)propan-2-yl)oxy)-8-fluoro-4-(piperazin-1-yl)quinazolin-7-yl)benzo[d] thiazol-2-amine], in assay [1], the IC50 was determined as 0.159 µM. Further, the “Avg 2 h Coupled Exchange IC50” value in assay [2] amounted to 0.026 µM.
In assay [1], `Nc1nc2c(-c3c(F)cc4c(N5C[C@H]6CC[C@@H](C5)N6)nc(OC[C@@]56CCCN5C[C@H](F)C6)nc4c3F)ccc(F)c2s1` [Example 141, 4-(4-((1R,5S)-3,8-diazabicyclo [3.2.1]octan-3-yl)-6,8-difluoro-2-(((2R,7aS)-2-fluorotetrahydro-1H-pyrrolizin-7a(5H)-yl)methoxy)quinazolin-7-yl)-7-fluorobenzo[d]thiazol-2-amine] registered an IC50 of 0.002 µM. Moreover, the “Avg 2 h Coupled Exchange IC50” value in assay [2] amounted to 0.002 µM.
In assay [1], `Nc1nc2c(-c3c(Cl)cc4c(N5CCCNC(=O)C5)nc(OCC56CCCN5CCC6)nc4c3F)ccc(F)c2s1` [Example 12, 4-(7-(2-amino-7-fluorobenzo[d]thiazol-4-yl)-6-chloro-8-fluoro-2-((tetrahydro-1H-pyrrolizin-7a(5H)-yl)methoxy)quinazolin-4-yl)-1,4-diazepan-2-one] registered an IC50 of 0.018 µM. In assay [2], the “Avg 2 h Coupled Exchange IC50” value was 0.014 µM.
With `Nc1nc2c(-c3c(Cl)cc4c(N5CCNCC5)nc(OCC56CCCN5C(=O)CC6)nc4c3F)cccc2s1` (stereo not shown) [Example 43, 7a-(((7-(2-aminobenzo[d]thiazol-4-yl)-6-chloro-8-fluoro-4-(piperazin-1-yl)quinazolin-2-yl)oxy)methyl)hexahydro-3H-pyrrolizin-3-one], in assay [1], the IC50 was determined as 3.19 µM. Further, in assay [2], the “Avg 2 h Coupled Exchange IC50” value worked out at 3.29 µM.
As for `Nc1nc2c(-c3c(Cl)cc4c(N5CCNCC5)nc(OC[C@@H]5C[C@H](F)CN5)nc4c3F)cccc2s1` [Example 55, 4-(6-chloro-8-fluoro-2-(((2S,4S)-4-fluoro-pyrrolidin-2-yl)methoxy)-4-(piperazin-1-yl)quinazolin-7-yl)benzo[d] thiazol-2-amine], it took 0.285 µM to reach half-maximal inhibition in assay [1] (IC50). The “Avg 2 h Coupled Exchange IC50” value in assay [2] is 0.106 µM.
The corresponding values for `CN1C[C@H](F)C[C@H]1COc1nc2c(F)c(-c3ccc(F)c4sc(N)nc34)c(Cl)cc2c(N2[C@@H]3CC[C@H]2CNC3)c1C#N` [Example 160, 7-(2-amino-7-fluorobenzo[d]thiazol-4-yl)-4-((1R,5S)-3,8-diazabicyclo[3.2.1]octan-8-yl)-6-chloro-8-fluoro-2-(((2S,4R)-4-fluoro-1-methylpyrrolidin-2-yl)methoxy)quinoline-3-carbonitrile] are 0.882 µM and 0.578 µM.
With `CN1CCC[C@H]1COc1nc(N2CCCNC(=O)C2)c2cc(Cl)c(-c3cccc4sc(N)nc34)c(F)c2n1` [Example 22, 4-(7-(2-aminobenzo[d]thiazol-4-yl)-6-chloro-8-fluoro-2-(((S)-1-methylpyrrolidin-2-yl)methoxy)quinazolin-4-yl)-1,4-diazepan-2-one], the IC50 in assay [1] is 0.168 µM. Moreover, the “Avg 2 h Coupled Exchange IC50” value in assay [2] was 0.114 µM.
The corresponding values for `Nc1nc2c(-c3c(Cl)cc4c(N5CCNCC5)nc(OCC56CCCN5CC(F)(F)C6)nc4c3F)cccc2s1` (stereo not shown) [Example 54, 4-(6-chloro-2-((2,2-difluorotetra-hydro-1H-pyrrolizin-7a(5H)-yl)methoxy)-8-fluoro-4-(piperazin-1-yl)quinazolin-7-yl)benzo[d] thiazol-2-amine] are 0.087 µM and 0.079 µM.
Turning to `Nc1nc2c(-c3c(Cl)cc4c(N5C[C@H]6COC[C@@H](C5)N6)nc(OC[C@@]56CCCN5C[C@H](F)C6)nc4c3F)ccc(F)c2s1` [Example 42, 4-(4-((1R,5S)-3-oxa-7,9-diazabicyclo[3.3.1]nonan-7-yl)-6-chloro-8-fluoro-2-(((2R,7aS)-2-fluorotetrahydro-1H-pyrrolizin-7a(5H)-yl)methoxy)quinazolin-7-yl)-7-fluorobenzo[d] thiazol-2-amine], the IC50 in assay [1] amounted to 0.012 µM. The “Avg 2 h Coupled Exchange IC50” value in assay [2] was 0.012 µM.
In turn, `CN1C[C@H](F)C[C@H]1COc1nc(N2C[C@H]3COC[C@@H](C2)N3)c2cc(Cl)c(-c3ccc(F)c4sc(N)nc34)c(F)c2n1` [Example 41, 4-(4-((1R,5S)-3-oxa-7,9-diazabicyclo[3.3.1]nonan-7-yl)-6-chloro-8-fluoro-2-(((2S,4R)-4-fluoro-1-methylpyrrolidin-2-yl)methoxy)quinazolin-7-yl)-7-fluorobenzo[d] thiazol-2-amine] yielded a concentration for half-maximal inhibition (IC50) in assay [1] of 0.079 µM. Further, the “Avg 2 h Coupled Exchange IC50” value in assay [2] was found to be 0.065 µM.
The corresponding values for `CCN1CCC(COc2nc(N3CCNCC3)c3cc(Cl)c(-c4cccc5sc(N)nc45)c(F)c3n2)CC1` [Example 63, 4-(6-chloro-2-((1-ethylpiperidin-4-yl)methoxy)-8-fluoro-4-(piperazin-1-yl)quinazolin-7-yl)benzo[d] thiazol-2-amine] are 0.473 µM and 0.429 µM.
The corresponding values for `CC(=O)N1CCC[C@H]1COc1nc(N2CCNCC2)c2cc(Cl)c(-c3cccc4sc(N)nc34)c(F)c2n1` [Example 71, 1-((2S)-2-(((7-(2-aminobenzo[d]thiazol-4-yl)-6-chloro-8-fluoro-4-(piperazin-1-yl)quinazolin-2-yl)oxy)methyl)pyrrolidin-1-yl)ethan-1-one] are 3.98 µM and 2.53 µM.
